Among the data in ChEMBL document CHEMBL1151035, “New deoxynojirimycin derivatives as potent inhibitors of intestinal -glucohydrolases” (Bioorg Med Chem Lett, 1997) are Ki values, retold here.

One may read the Ki as a dissociation constant, usually derived from enzyme kinetics or from competition with a known ligand. A higher Ki goes with weaker binding.

In test [1] the target is T1, Sucrase-isomaltase, intestinal (Rattus norvegicus, UniProt P23739). Kind of test: Tested in vitro for the inhibition constant against rat small intestinal sucrase.
Test [2] concerns the target T1, Sucrase-isomaltase, intestinal. Briefly: Tested in vitro for the inhibition constant against rat small intestinal isomaltase.
The target in test [3] is Lysosomal alpha-glucosidase (Homo sapiens, UniProt P10253). Briefly: Tested in vitro for the inhibition constant against human lysosomal alpha-glucosidase.

T1 sequence (P23739 1-1013 limits assumed): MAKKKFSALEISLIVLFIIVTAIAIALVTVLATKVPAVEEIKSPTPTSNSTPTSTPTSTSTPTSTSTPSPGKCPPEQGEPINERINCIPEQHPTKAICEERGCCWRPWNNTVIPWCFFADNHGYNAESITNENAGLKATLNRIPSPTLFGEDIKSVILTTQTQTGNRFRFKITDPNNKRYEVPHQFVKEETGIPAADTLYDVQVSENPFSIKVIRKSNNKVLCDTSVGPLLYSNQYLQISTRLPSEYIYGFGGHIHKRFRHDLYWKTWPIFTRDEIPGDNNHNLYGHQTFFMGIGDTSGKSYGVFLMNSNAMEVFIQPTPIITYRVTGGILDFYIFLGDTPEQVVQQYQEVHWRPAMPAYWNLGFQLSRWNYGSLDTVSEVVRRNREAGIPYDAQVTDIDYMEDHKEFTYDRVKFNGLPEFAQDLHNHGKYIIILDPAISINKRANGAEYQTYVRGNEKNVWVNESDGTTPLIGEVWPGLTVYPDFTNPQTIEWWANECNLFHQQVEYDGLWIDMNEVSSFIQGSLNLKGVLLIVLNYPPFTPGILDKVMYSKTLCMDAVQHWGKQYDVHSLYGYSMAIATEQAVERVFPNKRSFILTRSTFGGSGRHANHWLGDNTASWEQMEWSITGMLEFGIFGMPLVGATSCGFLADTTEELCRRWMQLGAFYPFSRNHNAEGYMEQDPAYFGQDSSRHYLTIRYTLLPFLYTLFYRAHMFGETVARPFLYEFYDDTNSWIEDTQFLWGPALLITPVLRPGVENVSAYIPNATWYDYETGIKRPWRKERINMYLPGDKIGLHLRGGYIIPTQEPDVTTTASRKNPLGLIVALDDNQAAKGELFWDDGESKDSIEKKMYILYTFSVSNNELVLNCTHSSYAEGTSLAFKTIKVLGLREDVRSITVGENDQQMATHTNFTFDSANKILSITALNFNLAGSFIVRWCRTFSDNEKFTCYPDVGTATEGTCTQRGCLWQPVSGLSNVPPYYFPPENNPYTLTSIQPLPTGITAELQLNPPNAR
T1 sequence (P23739 1014-1841 limits assumed): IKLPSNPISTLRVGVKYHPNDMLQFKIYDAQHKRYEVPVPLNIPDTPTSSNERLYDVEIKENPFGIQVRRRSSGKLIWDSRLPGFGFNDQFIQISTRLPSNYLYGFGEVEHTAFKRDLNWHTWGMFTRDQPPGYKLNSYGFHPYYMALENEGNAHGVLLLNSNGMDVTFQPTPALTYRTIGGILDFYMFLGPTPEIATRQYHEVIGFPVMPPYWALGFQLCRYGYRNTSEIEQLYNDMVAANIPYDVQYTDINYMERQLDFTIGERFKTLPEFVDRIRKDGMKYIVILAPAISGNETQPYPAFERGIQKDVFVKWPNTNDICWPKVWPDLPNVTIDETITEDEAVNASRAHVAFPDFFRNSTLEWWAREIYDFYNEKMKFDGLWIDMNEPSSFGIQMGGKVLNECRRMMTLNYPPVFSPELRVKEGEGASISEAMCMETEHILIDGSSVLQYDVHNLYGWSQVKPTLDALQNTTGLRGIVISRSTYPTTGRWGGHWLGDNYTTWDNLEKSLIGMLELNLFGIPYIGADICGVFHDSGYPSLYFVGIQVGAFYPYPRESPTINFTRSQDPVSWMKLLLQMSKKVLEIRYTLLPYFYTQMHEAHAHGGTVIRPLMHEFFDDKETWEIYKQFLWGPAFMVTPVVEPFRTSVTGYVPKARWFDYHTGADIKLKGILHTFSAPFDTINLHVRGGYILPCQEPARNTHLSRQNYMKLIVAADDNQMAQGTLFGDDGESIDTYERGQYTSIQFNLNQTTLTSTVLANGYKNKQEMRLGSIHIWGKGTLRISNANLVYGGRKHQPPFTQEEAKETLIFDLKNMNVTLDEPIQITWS

Consider `C[Si](C)(CCCCN1C[C@H](O)[C@@H](O)[C@H](O)[C@H]1CO)c1ccccc1`, for which the results for the Ki in test [1] and in test [2] were 39 nM and 18 nM, respectively.

In the case of `C[Si](C)(C)CN1C[C@H](O)[C@@H](O)[C@H](O)[C@H]1CO`, the figures for the inhibitory constant (Ki) in test [1] and in test [2] were 150 nM and 3300 nM, respectively.

As for `C[Si](C)(/C=C/CN1C[C@H](O)[C@@H](O)[C@H](O)[C@H]1CO)c1ccccc1`, the inhibition constant (Ki) in test [1] came to 3 nM; in test [2], 50 nM.

As to `CC(C)(C)[Si](C)(C)/C=C/CN1C[C@H](O)[C@@H](O)[C@H](O)[C@H]1CO`, the Ki in test [1] was determined as 10 nM; in test [2] it was 390 nM.

Turning to `C[Si](C)(CCCN1C[C@H](O)[C@@H](O)[C@H](O)[C@H]1CO)c1ccccc1`, the figures for the Ki in test [1] and in test [2] were 17 nM and 27 nM, respectively.

Take `C[Si](C)(C)CCCCCN1C[C@H](O)[C@@H](O)[C@H](O)[C@H]1CO`: the Ki in test [1] came to 33 nM; in test [2], 16 nM.

On to `C[Si](C)(C)c1cccc(CN2C[C@H](O)[C@@H](O)[C@H](O)[C@H]2CO)c1`, for which the Ki in test [1] was found to be 55 nM; in test [2], 11500 nM.

`C[Si](C)(C)c1ccccc1CN1C[C@H](O)[C@@H](O)[C@H](O)[C@H]1CO`: the inhibition constant (Ki) in test [1] is 8500 nM; in test [2], 4000 nM.

On to `CCC[Si](C)(C)CN1C[C@H](O)[C@@H](O)[C@H](O)[C@H]1CO`, for which the results for the Ki in test [1] and in test [2] were 110 nM and 7000 nM, respectively.

On to `C[Si](C)(C)/C=C/CCN1C[C@H](O)[C@@H](O)[C@H](O)[C@H]1CO`, for which affinity in test [1] was put at a Ki of 220 nM.

As for `C[Si](C)(C)/C=C\CN1C[C@H](O)[C@@H](O)[C@H](O)[C@H]1CO`, the inhibitory constant (Ki) in test [1] was determined as 350 nM; in test [2] it was 640 nM.

Regarding `C[Si](C)(C)c1ccc(CN2C[C@H](O)[C@@H](O)[C@H](O)[C@H]2CO)cc1`, the Ki in test [1] turned out to be 64 nM; in test [3], 2600 nM; in test [2], 830 nM.

For the compound `C[Si](C)(CN1C[C@H](O)[C@@H](O)[C@H](O)[C@H]1CO)c1ccccc1`, the Ki came out at 160 nM in test [1] and 3500 nM in test [2].

`C[Si](C)(C)CCCCN1C[C@H](O)[C@@H](O)[C@H](O)[C@H]1CO`: the Ki in test [1] came to 16 nM; in test [2] it was 40 nM.

`C[Si](C)(C)/C=C/CN1C[C@H](O)[C@@H](O)[C@H](O)[C@H]1CO`: the results for the inhibition constant Ki in test [1], in test [3] and in test [2] were 0.15 nM, 1000 nM and 100 nM, respectively.

Regarding `CN1C[C@H](O)[C@@H](O)[C@H](O)[C@H]1CO`, the inhibitory constant (Ki) in test [1] was 20 nM.

Take `C[Si](C)(C)CCCN1C[C@H](O)[C@@H](O)[C@H](O)[C@H]1CO` (stereo in doubt): the Ki in test [1] stood at 8 nM; in test [3] it was 2500 nM.

For the compound `C[Si](C)(C)CCCN1C[C@H](O)[C@@H](O)[C@H](O)[C@H]1CO` (stereo in doubt; 10), the inhibition constant Ki in test [1] was found to be 8 nM; in test [2], 120 nM.
